Entries after “also recorded” stand apart in the source; their conditions may differ.
What was measured:
[1] = target: NR1s1s2 (ligand binding domains of the NMDA receptor), glycine site; conditions: radioligand parameter stated in assay method; obtained from Sigma Aldrich; cited from earlier work
[2] = test system: high frequency oscillation; experiment: Resting state Electroencephalography (rsEEG); format: in vivo; conditions: 20 mg/kg subcutaneously in 10% HPβCD; 30-40 min after dosing; vs vehicle; rats
Protocol: On the day of surgery, rats (270-300 g) were anesthetized with a 0.25 ml/100 g subcutaneous (SC) injection of 1:1 hypnorm/Dormicum and mounted in a stereotaxic frame (David Kopf Instruments, Tujunga, Calif., USA) with blunt ear bars. Marcain (0.2 ml SC) was injected under the scalp, and gel (Neutral Opthta Eye Gel) put on the eyes to prevent the mucous membrane drying out. Holes were burred in the skull to allow for placement of two depth electrodes (E363-series; PlasticsOne, Roanoke, Va., USA) in left and right pre/infralimbic PFC (AP: 3.0 mm from the bregma suture, Medial-Lateral (ML): +/−0.7 mm from the sagittal suture and DV: 3.0 mm from the dura) and thalamus (AP: −2.8 mm from the bregma suture, ML: +0.7 mm from the sagittal suture and DV: 4.4 mm from the dura) and three screw electrodes at vertex (AP: −2 mm from the bregma suture, ML: +2.0 mm from the sagittal suture), a reference electrode (AP: +8.0 mm and ML: −2.0 mm), and a ground electrode (AP: −5 mm, ML: +5 mm). […] Animal bodyweights were recorded daily. […]
The development of the locomotive state-detection algorithm and the state-specific pharmaco-EEG analyses were carried out in MATLAB R2017a (The MathWorks, Inc., Natick, Mass., USA) using functions from the sigTOOL toolbox. Significant differences between drug-treated animals and vehicle were assessed according to Turkey's honest significant difference.

[3] = test system: time of immobility; experiment: Forced swim test; format: in vivo; conditions: 3, 10 and 30 mg/kg subcutaneously, 24 h before test; vs vehicle; Wistar Kyoto rats
Protocol: Adult male Wistar Kyoto rats from Envigo (former Harlan; Blackthorn, UK). Animals are maintained under controlled conditions (21±1° C., 37±1%, 12/12 h light/dark cycles, lights on at 8 a.m.) with food and water available ad libitum. In all studies WKY rats were randomly allocated to a maximum of 5 treatment groups (n=20 per group). […] The dosing of the animals were performed by subcutaneous injection 24 h before test g. The WKY rats were individually placed into a glass cylinder (50 cm height, 20 cm diameter) containing 30 cm of water at 25±1° C. for a 5 min test phase. The test session recorded (using a video camera placed above the cylinder for subsequent behavioural analysis) the time of immobility (s). One-way analysis of variance (ANOVA) was used to detect statistical significance in the FST data. The Fisher least significant difference (LSD) test was used for post hoc analyses. Probability values of P<0.05 were considered as statistically significant. Statistical analyses were performed using SPSS.

[4] = test system: tonic hind limb extensor seizure; experiment: Maximal Electro Shock Threshold (MEST); format: in vivo; conditions: 3, 10 and 30 mg/kg subcutaneously, 30 min before test; vs vehicle 10% HPβCD; rats
From the text: Naïve rats were acclimatised to the procedure room in their home cages, with food and water available ad libitum. All rats were weighed at the beginning of the study and randomly assigned to treatment groups. […] Rats were individually assessed for the production of a tonic hind limb extensor seizure using a Hugo Sachs Electronik stimulator, which delivered an adjustable constant current (1-300 mA) of 0.3 seconds duration via corneal electrodes. The stimulus intensity was varied, from a typical baseline of 25 mA, by an ‘up and down’ method of shock titration. […] This procedure continued for all rats within a treatment group. […] Significant differences between drug-treated animals and vehicle were assessed according to Litchfield and Wilcoxon (Litchfield J, Wilcoxon F. A simplified method for evaluating dose-effect experiments. J Pharmacol Exp Ther. 1949; 96(1): 99-113).

O=C(O)C(=Cc1c(C(=O)O)[nH]c2cc(Cl)cc(Cl)c12)c1ccccc1 [[3H]-MDL-105,519]
Kd [1]: 1.3 nM

COC(=O)[C@H](N)CNC(=O)c1cc2nccc(C)c2s1 [Compound 2c, Methyl (R)-2-amino-3-(7-methylthieno[3,2-b]pyridine-2-carboxamido)propanoate]
effects in resting state Electroencephalography (high frequency oscillation, baseline-normalized power) [2]: significant effects in high frequency oscillation; also recorded: significant effects in resting state Electroencephalography
time of immobility in forced swim test [3]: significant effects in time of immobility at the 30 mg/kg dose
effects on the maximal electro shock threshold (seizure threshold CC50 current) [4]: dose dependent effects
